Measurements from PMC6895048, “4,5-Disubstituted 1,2,3-triazoles: Effective Inhibition of Indoleamine 2,3-Dioxygenase 1 Enzyme Regulates T cell Activity and Mitigates Tumor Growth” (Scientific Reports, 2019).

Assays:
IDO1 [1] = conditions: cited from earlier work
[2] = cited from earlier work
IDO1 [3] = conditions: cited from earlier work; remark: listed apart in the source
IDO1 [4] = target: T1, IDO1 (Homo sapiens, UniProt P14902); experiment: Cellular IDO1 activity assay in IFN-γ induced MDA-MB-231 cells; assay type: cell-based; parameters: induce the expression of the native IDO1 enzyme from its mRNA in the MDA-MB-231 cells; endogenous in cells; host or cells: MDA-MB-231 cells induced with human IFN-γ (50 ng/mL); conditions: IDO1 expression induced by human IFN-γ (50 ng/mL); mean of three
Description: The cellular enzyme activity assay was performed according to the reported procedure with minor modifications[19],[27]–[30],[33],[54]. Briefly, MDA-MB-231 breast cancer cells were selected for this assay because of the presence of IDO1 mRNA in this cell line. First, cells were grown in DMEM/F12 complete media overnight. Then different concentration of human interferon-gamma (IFN-γ) (from 5–1000 ng/mL) was added to it and incubated for 48 hours. This treatment is reported to allow over-expression of IDO1 enzyme in MDA-MB-231 cells. […] Sterile cell-culture grade PBS was used to wash the cells by centrifugation technique. Then, the pellet was lysed in 10 mM HEPES buffer by passing through a sterile syringe. The lysate was used for standard IDO1 assay as mentioned earlier. The relative amount of N-formylkynurenine generated in the presence of the different concentration of IFN-γ was used to optimize the required concentration of IFN-γ for the IDO1 inhibition assay. […] Cells stimulated with IFN-γ alone were used as negative control, while cells stimulated with L-Trp without compound served as positive control. The cells were washed with sterile cell culture grade PBS and lysed in 10 mM HEPES buffer by sterile syringe. The lysate was used for standard IDO1 assay, as mentioned earlier, and the extent of IDO1 enzyme inhibition was determined for the selected compounds.

TDO enzyme = target: T2, TDO enzyme (Homo sapiens, UniProt P48775); experiment: HPLC based TDO inhibition assay; assay type: biochemical
T2 construct: 6xHis (N); made in house; host or cells: Escherichia coli BL21 (DE3) (pET 28a vector)
Description: (§1) HPLC based IDO1, and TDO inhibition assays were performed according to the earlier reported procedure[19],[27]–[30]. The reaction mixture (250 µL) contained KPB (100 mM, pH 6.5 for IDO1 and 50 mM, pH 8.0 for TDO), sodium ascorbate (20 mM), methylene blue (10 µM), catalase (240 nM, from bovine liver, Sigma), L-Trp (150 µM), purified enzyme (40 nM for IDO1 and 25 nM for TDO), DMSO (0.05%, v/v), Triton-X 100 (0.01%, v/v) and inhibitors. The concentration of the compound was varied from 100 µM to 32 nM by serial dilution. The mixture was incubated at 37 °C for 1 hour in the absence and presence of the synthesized compounds. The reaction was then quenched using 50 µL of 30% (w/v) trichloroacetic acid and incubated at 65 °C for additional 15 minutes to allow complete hydrolysis of N-formylkynurenine to kynurenine. After that, the mixture was centrifuged at 10,000 rpm for 10 minutes, and 100 µL of clear solution was transferred to another tube for HPLC analysis. Then, 20 µL of the reaction mixture was then injected through Ascentis® express C18, 2.7 µm HPLC column with a flow rate of 0.5 mL/minute of the mobile phase containing 50% sodium citrate buffer (40 mM, pH 2.25) and 50% methanol (v/v) with 400 µM SDS. The area under the curve at 365 nm chromatogram corresponding to the kynurenine formation was recorded, and % of inhibition was calculated using standard curve prepared with pure kynurenine (from Sigma) under similar experimental conditions.

[5] = target: T3, purified human IDO1 enzyme (Homo sapiens, UniProt P14902); experiment: IDO1 inhibition assay by the spectrometric method (pDMAB); assay type: biochemical; conditions: purified human IDO1; spectrophotometric; mean of three independent assays; read-out: hIDO1 IC50
T3 construct: made in house; host or cells: Escherichia coli M15 (pQE30 vector with pREP4 plasmid)
Description: Both IDO1 and TDO inhibition assays were performed according to the reported procedures[26]–[30],[50],[51]. […] In the assay system, the minimum and maximum amount of DMSO was 0.02% and 2%, respectively. […] The concentration of the inhibitors was varied from 100 µM to 32 nM by serial dilution technique. Then, the reaction was quenched with 100 µL of 30% (w/v) trichloroacetic acid and was incubated for further 15 minutes at 65 °C. After that, 2% (w/v) pDMAB was used to quantify the amount of kynurenine formation. The absorbance of the reaction mixture was recorded by UV-Vis spectrophotometer at 480 nm.

IDO1 [6] = target: T1, IDO1; experiment: Kynurenine assay by HPLC analysis, IDO1; assay type: biochemical; parameters: made in house; host or cells: Escherichia coli M15 (pQE30 vector with pREP4 plasmid); conditions: for % Of inhibition for IDO1 enzyme: HPLC
Description: as §1

[7] = target: T4, purified human TDO enzyme (Homo sapiens, UniProt P48775); experiment: TDO inhibition assay by the spectrometric method; assay type: biochemical; conditions: spectrophotometric
T4 construct: 6xHis (N); made in house; host or cells: Escherichia coli BL21 (DE3) (pET 28a vector)
Description: Both IDO1 and TDO inhibition assays were performed according to the reported procedures[26]–[30],[50],[51]. The solubility of the compounds in water was either moderate or poor. […] In the assay system, the minimum and maximum amount of DMSO was 0.02% and 2%, respectively. The standard reaction mixture (500 μL) containing KPB (100 mM, pH 6.5 for IDO1 enzyme and 50 mM, pH 8.0 for TDO enzyme), sodium ascorbate (20 mM), methylene blue (10 µM), catalase (240 nM, from bovine liver), L-Trp (150 µM), purified enzyme (40 nM for IDO1 and 25 nM for TDO), DMSO (0.05%, v/v), Triton-X 100 (0.01%, v/v) and inhibitors was incubated at 37 °C for 1 hour. The concentration of the inhibitors was varied from 100 µM to 32 nM by serial dilution technique. Then, the reaction was quenched with 100 µL of 30% (w/v) trichloroacetic acid and was incubated for further 15 minutes at 65 °C. After that, 2% (w/v) pDMAB was used to quantify the amount of kynurenine formation. The absorbance of the reaction mixture was recorded by UV-Vis spectrophotometer at 480 nm. The Km = 59.76 µM and Kcat = 6.18 sec^−1.

T4 sequence (P48775 whole entry): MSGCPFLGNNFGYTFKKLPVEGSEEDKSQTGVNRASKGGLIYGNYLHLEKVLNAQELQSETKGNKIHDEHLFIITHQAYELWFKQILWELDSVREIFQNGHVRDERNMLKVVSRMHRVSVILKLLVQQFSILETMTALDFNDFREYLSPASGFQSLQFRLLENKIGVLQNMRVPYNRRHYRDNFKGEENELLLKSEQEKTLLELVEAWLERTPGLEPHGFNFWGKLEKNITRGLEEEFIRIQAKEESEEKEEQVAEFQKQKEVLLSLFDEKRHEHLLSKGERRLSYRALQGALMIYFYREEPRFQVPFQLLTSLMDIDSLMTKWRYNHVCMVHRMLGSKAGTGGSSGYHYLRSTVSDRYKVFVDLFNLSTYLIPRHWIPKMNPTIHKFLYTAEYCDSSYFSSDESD
T2 sequence (P48775 whole entry): as above
T1 sequence (P14902 whole entry): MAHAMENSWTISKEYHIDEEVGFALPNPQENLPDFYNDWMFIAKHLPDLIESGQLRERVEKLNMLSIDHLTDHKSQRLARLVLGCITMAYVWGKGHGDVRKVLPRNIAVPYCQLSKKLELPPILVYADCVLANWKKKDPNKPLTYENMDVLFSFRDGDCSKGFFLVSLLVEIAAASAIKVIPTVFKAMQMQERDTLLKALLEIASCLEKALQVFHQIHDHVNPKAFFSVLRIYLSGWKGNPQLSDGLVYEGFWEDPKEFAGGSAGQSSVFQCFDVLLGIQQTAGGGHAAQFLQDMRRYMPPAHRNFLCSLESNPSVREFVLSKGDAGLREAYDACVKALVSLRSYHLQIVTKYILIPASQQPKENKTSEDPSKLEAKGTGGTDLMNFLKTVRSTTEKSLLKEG
T3 sequence (P14902 whole entry): as above

## Oc1ccc(Cl)cc1-c1cnn[nH]1 [MMG-0358, 4-chloro-2-(1H-1,2,3-triazol-5-yl)phenol]
IDO1 [1]
  IDO1 inhibitory activities, cellular assay: nanomolar-level
[2]
  cytotoxicity: low cytotoxicity
IDO1 [3]
  IDO1 inhibitory activities, enzymatic assay: nanomolar-level

## CCc1ccccc1Nc1cnn[nH]1 [N-(2-Ethylphenyl)-1H-1,2,3-triazol-5-amine]
IDO1 [1]
  cellular IDO1 inhibitory activities: nanomolar-level

## CCOC(=O)c1n[nH]nc1-c1ccc(Cl)c(Cl)c1 [Compound 2j]
IDO1 [4]
  EC50: 160 ± 7 nM
TDO enzyme; 32 nM
  % Of inhibition for TDO enzyme: 1%
TDO enzyme; 160 nM
  % Of inhibition for TDO enzyme: 35%
TDO enzyme; 800 nM
  % Of inhibition for TDO enzyme: 36%
TDO enzyme; 4 µM
  % Of inhibition for TDO enzyme: 49%
TDO enzyme; 20 µM
  % Of inhibition for TDO enzyme: 41%
TDO enzyme; 100 µM
  % Of inhibition for TDO enzyme: 43%
[5]
  IC50: 163 ± 25 nM
IDO1 [6]; HPLC based IDO1 inhibition assay
  IC50: 257 ± 9 nM
IDO1 [6]; 32 nM
  % Of inhibition for IDO1 enzyme: 24%
IDO1 [6]; 160 nM
  % Of inhibition for IDO1 enzyme: 31%
IDO1 [6]; 800 nM
  % Of inhibition for IDO1 enzyme: 52%
IDO1 [6]; 4 µM
  % Of inhibition for IDO1 enzyme: 65%
IDO1 [6]; 20 µM
  % Of inhibition for IDO1 enzyme: 77%
IDO1 [6]; 100 µM
  % Of inhibition for IDO1 enzyme: 77%
[7]; 32 nM
  % of Enzyme inhibition (TDO): 8%
[7]; 160 nM
  % of Enzyme inhibition (TDO): 12%
[7]; 800 nM
  % of Enzyme inhibition (TDO): 25%
[7]; 4 µM
  % of Enzyme inhibition (TDO): 30%
[7]; 20 µM
  % of Enzyme inhibition (TDO): 44%
[7]; 100 µM
  % of Enzyme inhibition (TDO): 53%
